Among the data in PubChem BioAssay AID256 (DTP/NCI, 2004) are T/C values, retold here.

Values joined by “and” are separate entries in the source; they are usually repeats but may differ in a detail not shown here. Equal values may be shown once. Inconclusive results and toxic doses are left out.

This assay has as its system CD2F1 mice, L1210 leukemia ip, survival T/C. The experiment in a line: NCI In Vivo Anticancer Drug Screen. Data for tumor model L1210 Leukemia (intraperitoneal) in CD2F1 (CDF1) mice. As to conditions: higher = longer survival. Put shortly:
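In this screen, transplantable tumors were grown in mice given either the compound or its vehicle. Results were expressed as the treated measurement relative to the control measurement.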

Setting [1] is: endpoint: mean survival time, dose: 50.0 mg/kg/injection, schedule: Q01DX009 (ip), vehicle: saline.
The mark [2] stands for this setting: endpoint: mean survival time, dose: 100.0 mg/kg/injection, schedule: Q01DX001 (ip), vehicle: saline.
[3] abbreviates: endpoint: mean survival time, dose: 100.0 mg/kg/injection, schedule: Q01DX009 (ip), vehicle: saline.
Setting [4] is: endpoint: mean survival time, dose: 100.0 mg/kg/injection, schedule: Q04DX003 (ip), vehicle: saline.
[5] abbreviates: endpoint: mean survival time, dose: 200.0 mg/kg/injection, schedule: Q01DX001 (ip), vehicle: saline.
[6] abbreviates: endpoint: mean survival time, dose: 200.0 mg/kg/injection, schedule: Q01DX009 (ip), vehicle: saline.
The mark [7] stands for this setting: endpoint: mean survival time, dose: 200.0 mg/kg/injection, schedule: Q04DX003 (ip), vehicle: saline.
Where [8] appears, read: endpoint: mean survival time, dose: 400.0 mg/kg/injection, schedule: Q01DX001 (ip), vehicle: saline.
Where [9] appears, read: endpoint: mean survival time, dose: 100.0 mg/kg/injection, schedule: Q01DX009 (ip), vehicle: saline with Tween-80.
Where [10] appears, read: endpoint: mean survival time, dose: 200.0 mg/kg/injection, schedule: Q01DX009 (ip), vehicle: saline with Tween-80.
[11] abbreviates: endpoint: mean survival time, dose: 400.0 mg/kg/injection, schedule: Q01DX009 (ip), vehicle: saline with Tween-80.
Setting [12] is: endpoint: mean survival time, dose: 400.0 mg/kg/injection, schedule: Q04DX003 (ip), vehicle: saline.
Where [13] appears, read: endpoint: mean survival time, dose: 100.0 mg/kg/injection, schedule: Q04DX003 (ip), vehicle: saline with Tween-80.
Where [14] appears, read: endpoint: mean survival time, dose: 200.0 mg/kg/injection, schedule: Q04DX003 (ip), vehicle: saline with Tween-80.

In the case of `CC(=O)Oc1ccc2c(c1)C(=O)CCCCCC(=O)O2`, the T/C runs as follows: (endpoint: mean survival time, dose: 12.5 mg/kg/injection, schedule: Q01DX009 (ip), vehicle: saline) 100 % of control; (endpoint: mean survival time, dose: 12.5 mg/kg/injection, schedule: Q04DX003 (ip), vehicle: saline) 97 % of control; (endpoint: mean survival time, dose: 25.0 mg/kg/injection, schedule: Q01DX001 (ip), vehicle: saline) 98 % of control; (endpoint: mean survival time, dose: 25.0 mg/kg/injection, schedule: Q01DX009 (ip), vehicle: saline) 97 % of control; (endpoint: mean survival time, dose: 25.0 mg/kg/injection, schedule: Q04DX003 (ip), vehicle: saline) 98 % of control; (endpoint: mean survival time, dose: 50.0 mg/kg/injection, schedule: Q01DX001 (ip), vehicle: saline) 110 % of control. For the same molecule, the T/C runs as follows: under setting [1], 94 % of control; (endpoint: mean survival time, dose: 50.0 mg/kg/injection, schedule: Q04DX003 (ip), vehicle: saline) 111 % of control; under setting [2], 98 % of control; under setting [3], 95 % of control; under setting [4], 120 % of control; under setting [5], 100 % of control. In addition, the T/C was 89 % of control under setting [6], 102 % of control under setting [7] and 111 % of control under setting [8].
In the case of `O=C(Nc1ccc(Br)c2c(NC(=O)c3ccccc3)ccc(Br)c12)c1ccccc1`, the T/C runs as follows: under setting [9], 88 % of control and 93 % of control; under setting [10], 97 % of control; under setting [11], 93 % of control.
In the case of `CC(=O)O[C@@H]1[C@@H](O)[C@H]2O[C@@H]3C=C(C)CC[C@]3(CO)[C@]1(C)[C@@]21CO1`, the T/C (endpoint: mean survival time, dose: 1.25 mg/kg/injection, schedule: Q01DX009 (ip), vehicle: saline with Tween-80) was 103 % of control; the T/C (endpoint: mean survival time, dose: 2.5 mg/kg/injection, schedule: Q01DX009 (ip), vehicle: saline with Tween-80) is 115 % of control; the T/C (endpoint: mean survival time, dose: 5.0 mg/kg/injection, schedule: Q01DX009 (ip), vehicle: saline with Tween-80) is 115 % of control.
On to `CC(C)NC(=O)/C=C/C(=O)O`, for which the T/C reads like this: under setting [4], 100 % of control; under setting [7], 100 % of control; under setting [12], 100 % of control.
With `CC(C)(C)C1(C)CC1(Br)Br` (configuration not stated), the T/C was 105 % of control under setting [13] and 96 % of control under setting [14].
`CCSCCNC1=C(C)C(=O)C2=C(C1=O)[C@H](COC(N)=O)[C@]1(OC)[C@@H]3N[C@@H]3CN21`: the T/C runs as follows: (endpoint: mean survival time, dose: 6.0 mg/kg/injection, schedule: Q01DX001 (ip), vehicle: distilled water + Tween-80) 121 % of control; (endpoint: mean survival time, dose: 24.0 mg/kg/injection, schedule: Q01DX001 (ip), vehicle: distilled water + Tween-80) 155 % of control.
Take `C=CCNC(N)=O`: the T/C runs as follows: under setting [4], 94 % of control; under setting [7], 93 % of control.
For `CCS(=O)(=O)/C=C(\C#Cc1ccccc1)c1ccccc1`, the T/C is 90 % of control under setting [1]; 91 % of control under setting [3]; 102 % of control under setting [4]; 91 % of control under setting [6]; 102 % of control under setting [7]; 98 % of control under setting [12].
Regarding `O=C(OC(=O)c1cccc(-c2ccccc2)c1)c1cccc(-c2ccccc2)c1`, the T/C is, setting by setting: (endpoint: mean survival time, dose: 100.0 mg/kg/injection, schedule: Q01DX009 (ip), vehicle: Klucel (hydroxypropylcellulose) (HPC)) 109 % of control; (endpoint: mean survival time, dose: 200.0 mg/kg/injection, schedule: Q01DX009 (ip), vehicle: Klucel (hydroxypropylcellulose) (HPC)) 100 % of control; (endpoint: mean survival time, dose: 400.0 mg/kg/injection, schedule: Q01DX009 (ip), vehicle: Klucel (hydroxypropylcellulose) (HPC)) 97 % of control.
Regarding `O=c1[nH]c2ccc(Br)cc2c2ccccc12`, the T/C was 90 % of control under setting [2], 94 % of control under setting [5] and 100 % of control under setting [8].
Consider `COc1ccc(C2=NCCc3cc(OC)c(OC)cc32)cc1OC`, for which the T/C is 90 % of control (endpoint: mean survival time, dose: 12.5 mg/kg/injection, schedule: Q01DX009 (ip), vehicle: other) and 92 % of control (endpoint: mean survival time, dose: 25.0 mg/kg/injection, schedule: Q01DX009 (ip), vehicle: other).
With `Nn1c(=O)[nH][nH]c1=O`, the T/C is 96 % of control under setting [9]; 93 % of control under setting [13]; 96 % of control under setting [10]; 93 % of control under setting [14]; 98 % of control under setting [11]; 98 % of control (endpoint: mean survival time, dose: 400.0 mg/kg/injection, schedule: Q04DX003 (ip), vehicle: saline with Tween-80).
Turning to `CC(=O)O.CC(=O)O.[Co].[NH2-].[NH2-].[NH2-].[NH2-]`, the T/C runs as follows: (endpoint: mean survival time, dose: 6.25 mg/kg/injection, schedule: Q04DX002 (ip), vehicle: saline with Tween-80) 93 % of control; (endpoint: mean survival time, dose: 12.5 mg/kg/injection, schedule: Q04DX002 (ip), vehicle: saline with Tween-80) 87 % of control.
In the case of `CCCCOc1ccccc1NC(=O)CCl`, the T/C was 97 % of control under setting [9], 92 % of control under setting [10] and 95 % of control under setting [11].
Turning to `Cc1ccc[n+](CC(O)c2ccc(C(O)C[n+]3cccc(C)c3)cc2)c1` (configuration not stated), the T/C was 101 % of control (endpoint: mean survival time, dose: 0.08 mg/kg/injection, schedule: Q04DX003 (ip), vehicle: saline) and 101 % of control (endpoint: mean survival time, dose: 0.15 mg/kg/injection, schedule: Q04DX003 (ip), vehicle: saline).
On to `Cc1ccc(S(=O)(=O)NN=C2CC3CCC(C2)S3)cc1`, for which the T/C is, setting by setting: (endpoint: mean survival time, dose: 37.5 mg/kg/injection, schedule: Q01DX001 (ip), vehicle: saline with Tween-80) 101 % of control; (endpoint: mean survival time, dose: 75.0 mg/kg/injection, schedule: Q01DX001 (ip), vehicle: saline with Tween-80) 104 % of control; (endpoint: mean survival time, dose: 150.0 mg/kg/injection, schedule: Q01DX001 (ip), vehicle: saline with Tween-80) 106 % of control.
Regarding `Nc1c(Cl)cc2c(c1Cl)Cc1c-2cc(Br)c(N)c1Br`, the T/C (endpoint: mean survival time, dose: 12.5 mg/kg/injection, schedule: Q01DX001 (ip), vehicle: saline with Tween-80) was 100 % of control; the T/C (endpoint: mean survival time, dose: 25.0 mg/kg/injection, schedule: Q01DX001 (ip), vehicle: saline with Tween-80) was 97 % of control; the T/C (endpoint: mean survival time, dose: 50.0 mg/kg/injection, schedule: Q01DX001 (ip), vehicle: saline with Tween-80) was 97 % of control; the T/C (endpoint: mean survival time, dose: 100.0 mg/kg/injection, schedule: Q01DX001 (ip), vehicle: saline with Tween-80) was 101 % of control.
On to `CSC#N`, for which the T/C is 102 % of control (endpoint: mean survival time, dose: 5.0 mg/kg/injection, schedule: Q01DX009 (ip), vehicle: Klucel (hydroxypropylcellulose) (HPC)) and 102 % of control (endpoint: mean survival time, dose: 10.0 mg/kg/injection, schedule: Q01DX009 (ip), vehicle: Klucel (hydroxypropylcellulose) (HPC)).
Take `O=C(O)Cc1cccnc1`: the T/C is 98 % of control under setting [3]; 102 % of control under setting [6]; 110 % of control (endpoint: mean survival time, dose: 400.0 mg/kg/injection, schedule: Q01DX009 (ip), vehicle: saline).
As for `Cc1c(Cl)cccc1NC(=O)/C=C/c1ccccc1`, the T/C (endpoint: mean survival time, dose: 100.0 mg/kg/injection, schedule: Q04DX002 (ip), vehicle: saline with Tween-80) was 94 % of control; the T/C (endpoint: mean survival time, dose: 200.0 mg/kg/injection, schedule: Q04DX002 (ip), vehicle: saline with Tween-80) was 102 % of control; the T/C (endpoint: mean survival time, dose: 400.0 mg/kg/injection, schedule: Q04DX002 (ip), vehicle: saline with Tween-80) is 94 % of control.
With `CC/C(=C(\c1ccccc1)c1ccc(OCCN(C)C)cc1)c1ccccc1`, the T/C by setting is: (endpoint: median survival time, dose: 3.12 mg/kg/injection, schedule: Q01DX009 (ip), vehicle: suspension in saline) 101 % of control; (endpoint: median survival time, dose: 6.25 mg/kg/injection, schedule: Q01DX009 (ip), vehicle: suspension in saline) 101 % of control; (endpoint: median survival time, dose: 12.5 mg/kg/injection, schedule: Q01DX009 (ip), vehicle: suspension in saline) 100 % of control; (endpoint: median survival time, dose: 25.0 mg/kg/injection, schedule: Q01DX009 (ip), vehicle: saline with Tween-80) 100 % of control; (endpoint: median survival time, dose: 25.0 mg/kg/injection, schedule: Q01DX009 (ip), vehicle: suspension in saline) 97 % of control; (endpoint: median survival time, dose: 50.0 mg/kg/injection, schedule: Q01DX009 (ip), vehicle: saline with Tween-80) 107 % of control.
With `Cc1ccc(S(=O)(=O)OCC(O)C2OCOC3COCOC32)cc1` (configuration not stated), the T/C reads like this: (endpoint: mean survival time, dose: 100.0 mg/kg/injection, schedule: Q01DX001 (ip), vehicle: Klucel (hydroxypropylcellulose) (HPC)) 101 % of control; (endpoint: mean survival time, dose: 200.0 mg/kg/injection, schedule: Q01DX001 (ip), vehicle: Klucel (hydroxypropylcellulose) (HPC)) 103 % of control; (endpoint: mean survival time, dose: 400.0 mg/kg/injection, schedule: Q01DX001 (ip), vehicle: Klucel (hydroxypropylcellulose) (HPC)) 98 % of control; (endpoint: mean survival time, dose: 600.0 mg/kg/injection, schedule: Q01DX001 (ip), vehicle: Klucel (hydroxypropylcellulose) (HPC)) 93 % of control.
